# Positions count from the first letter of the chain named. pIC50, pKd: −log10 of the molar value.
# Target: T1, mutant MGL (Homo sapiens, UniProt Q99685, L169S/L176S)
# T1 sequence (Q99685 1-303 L169S/L176S): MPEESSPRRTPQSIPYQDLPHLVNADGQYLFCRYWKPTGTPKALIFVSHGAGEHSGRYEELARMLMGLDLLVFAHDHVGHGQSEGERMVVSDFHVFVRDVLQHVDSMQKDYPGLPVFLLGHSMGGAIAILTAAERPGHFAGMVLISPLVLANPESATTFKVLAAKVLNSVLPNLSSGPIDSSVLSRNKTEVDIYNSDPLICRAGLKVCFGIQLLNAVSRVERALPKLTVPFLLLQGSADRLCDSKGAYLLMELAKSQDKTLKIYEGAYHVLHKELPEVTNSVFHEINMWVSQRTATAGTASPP
# Test: MGL ThermoFluor assay - mutant
# Format: binding
# Details: ThermoFluor concentration-response, read-out: MGL mutant ThermoFluor Kd
row,pKd,Compound
1,5.70,O=C(c1ccccc1)C1CCC(C(=O)N2CC(N3CCN(C(=O)c4cscn4)CC3)C2)CC1 (stereo not drawn) [Cpd 478]
2,4.70,O=C(c1ccc(CS(=O)(=O)c2cccc(C(F)(F)F)c2)cc1)N1CC(N2CCN(C(=O)c3cscn3)CC2)C1 [Cpd 977]
3,7.00,"O=C(c1ccccc1)N1CCN(C2CN(C(=O)c3ccc(NCc4ccc5ccccc5c4)cc3)C2)CC1 [Cpd 491, N-(Naphthalen-2-ylmethyl)-4-({3-[4-(phenylcarbonyl)piperazin-1-yl]azetidin-1-yl}carbonyl)aniline]"
4,7.22,O=C(c1ccccc1)N1CCN(C2CN(C(=O)c3ccc(CNc4cccc(Cl)c4)cc3)C2)CC1 [Cpd 549]
5,5.00,"O=C(c1ccccc1)N1CCN(C2CN(C(=O)c3cccc(-n4cccc4)c3)C2)CC1 [Cpd 627, 1-(Phenylcarbonyl)-4-(1-{[3-(1H-pyrrol-1-yl)phenyl]carbonyl}azetidin-3-yl)piperazine]"
6,5.90,"O=C(c1ccc(-c2ccccc2)cc1)N1CCN(C2CN(C(=O)c3nccs3)C2)C(c2ccccc2)C1 (stereo not drawn) [Cpd 1401, 4-(Biphenyl-4-ylcarbonyl)-2-phenyl-1-[1-(1,3-thiazol-2-ylcarbonyl)azetidin-3-yl]piperazine]"
7,< 4.12,O=C(c1cscn1)N1CCN(C2CN(C(=O)C3CCC(C(F)(F)F)CC3)C2)CC1 (stereo not drawn) [Cpd 644]

# Same assay, conditions: ThermoFluor thermal stability binding assay, read-out: MGL mutant ThermoFluor Kd
row,pKd,Compound
1,6.48,O=C(C=Cc1ccc2ccccc2c1)N1CC(N2CCN(C(=O)c3nccs3)CC2)C1 [Cpd 297]
2,6.60,O=C(c1ccccc1)N1CCN(C2CN(C(=O)c3ccc4c(ccn4S(=O)(=O)c4ccccc4)c3)C2)CC1 [Cpd 130]
3,7.32,"CC(=O)Nc1cccc(-c2ccc(C(=O)N3CC(N4CCN(C(=O)c5nccs5)CC4)C3)cc2)c1 [Cpd 234, N-[4′-({3-[4-(1,3-Thiazol-2-ylcarbonyl)piperazin-1-yl]azetidin-1-yl}carbonyl)biphenyl-3-yl]acetamide]"
4,6.08,"O=C(/C=C/c1ccccc1Cl)N1CC(N2CCN(C(=O)c3nccs3)CC2)C1 [Cpd 295, 1-{1-[(2E)-3-(2-Chlorophenyl)prop-2-enoyl]azetidin-3-yl}-4-(1,3-thiazol-2-ylcarbonyl)piperazine]"
5,8.26,"O=C(c1ccc2c(c1)CCCN2c1ccc(C(F)(F)F)cc1)N1CC(N2CCN(C(=O)c3nccs3)CC2)C1 [Cpd 373, 6-({3-[4-(1,3-Thiazol-2-ylcarbonyl)piperazin-1-yl]azetidin-1-yl}carbonyl)-1-[4-(trifluoromethyl)phenyl]-1,2,3,4-tetrahydroquinoline]"
6,8.17,"N#CC=Cc1cccc(-c2ccc(C(=O)N3CC(N4CCN(C(=O)c5nccs5)CC4)C3)cc2)c1 [Cpd 223, 3-[4′-({3-[4-(1,3-Thiazol-2-ylcarbonyl)piperazin-1-yl]azetidin-1-yl}carbonyl)biphenyl-3-yl]prop-2-enenitrile]"
7,6.50,Cc1oc(-c2ccccc2)cc1C(=O)N1CC(N2CCN(C(=O)c3cscn3)CC2)C1 [Cpd 1396]

# Same assay, conditions: ThermoFluor, compound concentration measured by qNMR, read-out: MGL mutant ThermoFluor qKd (μM) (using qNMR conc.)
row,Kd,Compound
1,0.512 µM,"N#Cc1ccccc1-n1ccc2cc(C(=O)N3CC(N4CCN(C(=O)c5ccccc5)CC4)C3)ccc21 [Cpd 588, 2-[5-({3-[4-(Phenylcarbonyl)piperazin-1-yl]azetidin-1-yl}carbonyl)-1H-indol-1-yl]benzonitrile]"

# Target: T2, purified wild type MGL (wt-MGLL 6H-11-313) (Homo sapiens, UniProt Q99685)
# T2 sequence (Q99685 1-303): T1 sequence (Q99685 1-303 L169S/L176S) with S169L, S176L
# Test: not given
# Details: not given
row,pIC50,Compound
1,7.92,Cn1cc(-c2cccc(C(F)(F)F)c2)c2ccc(C(=O)N3CC(N4CCN(C(=O)c5nccs5)CC4)C3)cc21 [Cpd 1100]
2,6.98,Cc1cn(-c2ccc(F)cc2)c2ccc(C(=O)N3CC(N4CCN(C(=O)c5ccccc5)CC4)C3)cc12 [Cpd 584]
3,6.78,O=C(c1ccc2[nH]c(Cc3ccccc3)nc2c1)N1CC(N2CCN(C(=O)c3nccs3)CC2)C1 [Cpd 1004]
4,5.73,O=C(c1ccccc1)N1CCN(C2CN(C(=O)c3ccc4c(-c5ccccc5)ncnc4c3)C2)CC1 [Cpd 604]
5,5.57,O=C(c1ccc2[nH]c3c(c2c1)CCCC3)N1CC(N2CCN(C(=O)c3cscn3)CC2)C1 [Cpd 817]
6,5.07,Cc1c(-c2ccccc2)oc2c(C(=O)N3CCN(C4CN(C(=O)c5nccs5)C4)CC3c3ccccc3)cccc2c1=O (stereo not drawn) [Cpd 854]
7,6.69,Cc1cc(-c2cccc(C(F)(F)F)c2)ccc1C(=O)N1CCN(C2CN(C(=O)c3cscn3)C2)CC1 [Cpd 1212]
8,5.85,O=C(c1ccc2nc(Cc3ccccc3)[nH]c2c1)N1CCN(C2CN(C(=O)c3nccs3)C2)CC1 [Cpd 1001]
9,6.97,Cn1cc(-c2ccccc2)c2ccc(C(=O)N3CC(N4CCN(C(=O)c5ccccc5)CC4)C3)cc21 [Cpd 585]
10,6.95,O=C(c1ccc2[nH]c(CCc3ccccc3)nc2c1)N1CC(N2CCN(C(=O)c3nccs3)CC2)C1 [Cpd 1000]
11,5.48,O=C(c1nccs1)N1CCN(C2CN(C(=O)c3cnn(-c4ccccc4)c3-c3ccccc3)C2)CC1 [Cpd 1297]
12,> 8.30,O=C(c1ccc2c(c1)CCN(Cc1cccc(C(F)(F)F)c1)C2)N1CC(N2CCN(C(=O)c3nccs3)CC2)C1 [Cpd 879]
13,8.15,O=C(c1ccc(Oc2cc(C(F)(F)F)ccn2)cc1)N1CC(N2CCN(C(=O)c3nccs3)CC2)C1 [Cpd 652]
14,5.79,O=C(c1ccc2[nH]c(Cc3ccccc3)nc2c1)N1CC(N2CCN(C(=O)c3cscn3)CC2)C1 [Cpd 1003]
15,6.68,Cc1ccc(-n2nc(C)c(C(=O)N3CC(N4CCN(C(=O)c5nccs5)CC4)C3)n2)cc1 [Cpd 1214]
16,7.11,O=C(c1cccc(-c2ccc(C(F)(F)F)cc2)c1)N1CC(N2CCN(C(=O)c3nccs3)CC2)C1 [Cpd 149]
17,5.28,O=C(c1ccc2nc(CCc3ccccc3)[nH]c2c1)N1CCN(C2CN(C(=O)c3cscn3)C2)CC1 [Cpd 1002]
18,6.49,O=C(c1ccccc1)N1CCN(C2CN(C(=O)c3cc4cc(C(F)(F)F)ccc4s3)C2)CC1 [Cpd 124]
19,< 4.78,Cc1c(-c2ccccc2)oc2c(C(=O)N3CCN(C4CN(C(=O)c5ccccc5)C4)CC3c3ccccc3)cccc2c1=O (stereo not drawn) [Cpd 1489]
20,5.37,CC1CN(C2CN(C(=O)c3ccc(-c4ccccc4)cc3)C2)CCN1C(=O)c1nccs1 (stereo not drawn) [Cpd 117]
21,6.64,O=C(c1nccs1)N1CCN(C2CN(C(=O)c3nc4cc(Cl)ccc4s3)C2)CC1 [Cpd 728]
22,5.69,O=C(c1ccccc1)N1CC(N2CCN(C(=O)c3ccc(-c4ccccc4)cc3)CC23CC3)C1 [Cpd 606]
23,5.19,COc1cccc2c(C)c(C(=O)N3CCN(C4CN(C(=O)c5nccs5)C4)CC3)[nH]c12 [Cpd 846]
24,6.20,O=C(c1nccs1)N1CC(N2CCN(C(=O)c3nc4cc(Cl)ccc4s3)CC2)C1 [Cpd 764]
25,< 4.78,O=C(c1ccc(CS(=O)(=O)c2cccc(C(F)(F)F)c2)cc1)N1CC(N2CCN(C(=O)C(F)(F)F)CC2)C1 [Cpd 1498]
26,5.34,Cc1nn(-c2ccc(F)cc2)c(C)c1C(=O)N1CC(N2CCN(C(=O)c3nccs3)CC2)C1 [Cpd 1301]
27,5.54,O=C(c1ccc(S(=O)(=O)c2ccccc2)cc1)N1CC(N2CCN(C(=O)c3cscn3)CC2)C1 [Cpd 822]
28,4.88,Cc1c(C(=O)N2CC(N3CCN(C(=O)c4cscn4)CC3)C2)oc2c(F)cccc12 [Cpd 871]
29,> 8.30,"Cn1cc(Cc2cccc(F)c2)c2ccc(C(=O)N3CC(N4CCN(C(=O)c5nccs5)CC4)C3)cc21 [Cpd 1033, 3-(3-Fluorobenzyl)-1-methyl-6-({3-[4-(1,3-thiazol-2-ylcarbonyl)piperazin-1-yl]azetidin-1-yl}carbonyl)-1H-indole]"
30,5.66,O=C(c1ccccc1)N1CCN(C2CN(C(=O)c3ccc(Oc4ccccc4Cl)nc3)C2)CC1 [Cpd 521]

# Reference: patent publication US8362000B2, “Azetidinyl diamides as monoacylglycerol lipase inhibitors” (Janssen Pharmaceutica NV, priority 2009, dated 2013)
